# Experimental data reported in patent US20250179024A1, “AMYLOID AND ASSOCIATED PATHOLOGY MODULATORS AND METHODS THEREOF” (Jawaharlal Nehru Centre for Advanced Scientific Research, priority 2022, published 2025).
# pEC50: −log10 of the molar value.
# Columns and labels:
# [1] = biological target: T1, Aβ (Homo sapiens, UniProt P05067); assay: AFM imaging of Aβ samples; conditions: for morphology of Aβ sample, aggregation inhibition: Aβ 10 μM, FIG. 1C
# T1 construct: is a 42 amino acid proteolytic product from the amyloid precursor protein; purchased Invitrogen
# Description: AFM imaging was done to understand the morphological characteristics of Aβ and NMI treated samples. The samples from Aβ aggregation inhibition and dissolution studies were used for AFM imaging. 25 μL of sample was drop-casted on freshly cleaved mica substrate. The Aβ samples were allowed to adhere to substrate surface for 15 min, washed with filtered MiliQ water and air dried. The samples were imaged in Scan assist Air mode in Bioscope resolve AFM system (Bruker). The images were processed and analyzed using NanoScope analysis software. […] It has been observed that the oligomers are a highly toxic species compared to Aβ fibrillar aggregates. The ability of NMIs (M3) to inhibit the formation of Aβ oligomers was assessed by dot blot assay. Aβ peptide (10 μM) was incubated with NMIs at 4° C. for 24 h followed by probing with A11 oligomer-specific antibody. […] Native PAGE and western blot analysis was carried out to understand the size distribution of Aβ aggregated species. […] In order to analyse the higher order aggregates not permeable in the gel matrix and the morphological characteristics, Aβ samples were subjected to atomic force microscopy (AFM) imaging.
# [2] = biological target: T2, preformed Aβ fibrillar aggregates (Homo sapiens, UniProt P05067); assay: Dot blot assay of dissolution of preformed Aβ fibrillar aggregates; assay type: biochemical; conditions: Aβ aggregates 10 μM; for dissolution efficiency: NMIs 20 μM, 48 h
# T2 construct: is a 42 amino acid proteolytic product from the amyloid precursor protein; purchased Invitrogen
# Description: Aggregation modulation by toxic Aβ aggregates were assessed and were quantified by dot blot assay. Aβ peptide (10 μM) was dissolved in phosphate buffered saline (PBS, 10 mM, pH 7.4), incubated alone and with NMIs (20 μM) at 37° C. for 48 h. For concentration dependent inhibition, 10 μM Aβ peptide was incubated with 1, 2, 5, 10 and 20 μM of NMIs and incubated. Samples for oligomer inhibition studies were prepared by incubating Aβ alone and with NMIs at 4° C. for 24 and subjected to dot blot analysis. For dissolution studies, Aβ peptide alone was incubated in PBS for 48 h to prepare fibrils and then incubated with NMIs further for 48 h. For dot blot experiment, 5 μL of sample was blotted on activated PVDF (polyvinylidene fluoride) membrane in triplicates and air dried. The membrane was blocked with skimmed milk powder for 1 h at room temperature. The blot paper was washed with tris-buffered saline with 0.01% Tween 20 (TBST) three times for 5 min. Blot paper was treated with fibril specific OC primary antibody (Rabbit, 1:1000 dilution) overnight at 4° C. For oligomers blot A11 anti-oligomer antibody (Rabbit 1:1000) was used. Blot was washed thrice with TBST and treated with HRP-conjugated antirabbit secondary antibody (1:5000 dilutions) for 1 h at room temperature. The bolt was washed thrice for 5 min with TBST and developed with ECL reagent (Biorad) and imaged with ChemiDoc BioRad gel documentation system in autoexposure mode. Blots were analyzed and quantified by ImageJ software. The fibrillar aggregates were formed by incubating Aβ peptide (10 μM) in PBS (pH 7.4) at 37° C. for 48 h. The aggregate samples were treated with NMIs (20 μM) for 48 h followed by dot blot analysis. […] These studies confirmed that M3 as the potential candidate to dissolve Aβ fibrillar aggregates to possibly nontoxic species.
# [3] = biological target: T3, Aβ in the presence of Cu (II) (Homo sapiens, UniProt P05067); assay: Cu-dependent Aβ aggregation, native PAGE and western blot; assay type: biochemical; conditions: Aβ 10 μM, Cu (II) 20 μM, NMIs 20 μM, 37° C., 48 h
# T3 construct: is a 42 amino acid proteolytic product from the amyloid precursor protein; purchased Invitrogen
# Description: The samples were prepared by incubating Aβ42 with specific concentration of NMI compounds of present disclosure and metal ions for 48 h and then subjected to 6% native polyacrylamide gel electrophoresis (Native-PAGE) in tris-glycine buffer. The lower molecular weight aggregates permeabilized through the gel and resolved in the gel. Higher molecular aggregates stuck in the upper part of wells and potentially carried in gel. Then the protein was transferred to PVDF membrane for 4 h at cold condition maintained using ice cold transfer buffer and immersing the transfer apparatus in ice. Then the blots were continued similar to dot blots.
# The absorbance and fluorescence spectroscopy studies together with mass spectrometry data confirmed the selective Cu (II) or Zn (II) chelation property of M1 and M3. […] Aβ (10 μM) was incubated in the presence of Cu (II) or Zn (II) (20 μM) with NMIs at 37° C. for 48 h and the samples were subjected to native PAGE and western blot analysis. […] Modulation of Zn-dependent Aβ aggregation by M4 was attributed to its two Zn (II) chelation centres. M3 with dopamine and DPA moieties effectively modulated both Cu (II) and Zn (II)-dependent Aβ aggregation. The effect of NMIs on the morphological outcome of metal-dependent Aβ aggregation was visualized by AFM imaging (FIGS. 1E and 1F). Aβ in the presence of Cu (II) and Zn (II) formed dense and thick fibrils.
# [4] = system: SH-SY5Y cells; assay: Neuronal cell rescue from Aβ toxicity (MTT); assay type: cell-based; conditions: Aβ 10 μM
# Description: Cell rescue from Aβ toxicity by NMIs were assessed in SH-SY5Y cells. The cells were seeded into 96 well plate at cell density of 25,000 cells per well and after 24 h the media was replaced with DMEM-F12 with low serum (2.5% FBS). After 6 h, cells were treated with Aβ (10 μM) alone and with NMIs (20 μM) in low serum media. Different concentrations of compound (10, 20 and 50 μM) were used to treat cells. For metal dependent studies, Aβ (10 μM) with metals (20 μM) in the absence and presence of NMIs (20 μM) was treated. The cells were incubated for 30 h and MTT assay was performed to calculate the percentage cell viability.
# Compounds of the present disclosure (M1 to M4) were evaluated for their ability to rescue neuronal cells from Aβ toxicity by MTT assay.
# Further, the effect of concentration of compounds of the present disclosure on the cell rescue was assessed. […] The ability of NMIs to rescue cells from metal-dependent Aβ toxicity were assessed in the presence of Cu (II) and Zn (II). Cells were treated with Aβ (10 μM) along with metal ions (20 μM) and NMIs (20 μM) for 30 h. Aβ in the presence of Cu (II) reduced cell viability to ˜62% and M3 treatment had rescued cells with viability to 85% (FIG. 12C). Aβ with Zn (II) viability reduced to ˜61% and M3 treatment rescued cells by improving the viability to ˜79% (FIG. 12D). […] These in-cellulo experiments confirmed the ability of M3 to effectively rescue neuronal cells from metal-independent and dependent Aβ toxicity.
# [5] = modulators 20 μM, Aβ alone ~52%, FIG. 12A
# T1 sequence (P05067 672-713 limits assumed): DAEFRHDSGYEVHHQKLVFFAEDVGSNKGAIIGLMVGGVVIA
# T2 sequence (P05067 672-713 limits assumed): as above
# T3 sequence (P05067 672-713 limits assumed): as above
SMILES,"morphology of Aβ sample, aggregation inhibition ([1]; NMIs 20 μM)",dissolution efficiency [2] [%],formation of Aβ aggregates in the presence of Cu (II) [3],"cell viability [4, 5]","morphology of metal-dependent Aβ aggregation ([1]; Aβ 10 μM with Cu (II) or Zn (II), NMIs 20 μM, FIGS. 1E and 1F)","morphology of preformed fibrils after treatment ([1]; Aβ aggregates 10 μM, FIG. 4C)",pEC50 [2],dissolution ([2]; 0.1 molar ratio) [%],dissolution ([2]; 0.2 molar ratio) [%],dissolution ([2]; 0.5 molar ratio) [%],dissolution ([2]; 1 molar ratio) [%],dissolution ([2]; 2 molar ratio) [%],"cell viability ([4]; 50 μM compound, control 54%, FIG. 12B)","viability at 5 µM ([4]; Homo sapiens, SH-SY5Y, 5 μM compound, control 54%, FIG. 12B) [%]","viability at 10 µM ([4]; Homo sapiens, SH-SY5Y, 10 μM compound, control 54%, FIG. 12B) [%]","viability at 20 µM ([4]; Homo sapiens, SH-SY5Y, 20 μM compound, control 54%, FIG. 12B) [%]"
"CN(C)c1ccc2c3c(cccc13)C(=O)N(CCc1ccc(O)c(O)c1)C2=O [M1, 2-(3,4-dihydroxyphenethyl)-6-(dimethylamino)-1H-benzo[de]isoquinoline-1,3(2H)-dione]",amorphous structures,~44,reduced the formation of aggregates,lowered alleviation of the Aβ toxicity,–,–,–,–,–,–,–,–,–,–,–,–
"O=C1c2cccc3c(N(Cc4ccccn4)Cc4ccccn4)ccc(c23)C(=O)N1CCc1ccc(O)c(O)c1 [M3, 6-(bis(pyridin-2-ylmethyl)amino)-2-(3,4-dihydroxyphenethyl)-1H-benzo[de]isoquinoline-1,3(2H)-dione]",amorphous structures,52,reduced the formation of aggregates,~75%,minimal Aβ fibrils and mostly small amorphous clumps,amorphous clumps,5.10,25,46,48,50,59,near-complete rescue,68,70,83
